Data: patent US7211585B2, “5-HT7 receptor antagonists” (Laboratorios del Dr. Esteve, S.A., priority 2004, dated 2007)
Counter-ions that a name gives are not always drawn.

Molecular target: T1, Cloned Human Serotonin Receptor, subtype 7 (h5HT7) (Homo sapiens, UniProt P34969)
T1 construct: purchased PerkinElmer 6120512; host or cells: CHO cells (membranes coated on Basic FlashPlate, Cat. SMP200)
Experiment: Radioligand binding assay, cloned human 5-HT7 receptor in CHO cells, [125I]LSD, Flashplate
Conditions: h5HT7 expressed in CHO cells; [125I]LSD 0.82 nM; triplicate determinations; read-out: 5-HT7 IC-50
Procedure: Biological Assays Radioligand Binding
Radioligand binding assays were performed using the Cloned Human Serotonin Receptor, subtype 7 (h5HT7), expressed in CHO cells, coated on Flashplate (Basic FlashPlate Cat.: SMP200) from PerkinElmer (Cat.: 6120512). The protocol assay was essentially the recommended protocol in the Technical Data Sheet by PerkinEmer Life and Analytical Sciences. The Mass membrane protein/well was typically 12 μg and the Receptor/well was about 9–10 fmoles. The Flashplate were let equilibrate at room temperature for one hour before the addition of the components of the assay mixture. The binding buffer was: 50 mM Trish-CHl, pH 7.4, containing 10 mM MgCl2, 0.5 mM EDTA and 0.5% BSA. The radioligand was [^125I]LSD at a final concentration of 0.82 nM. Nonspecific binding was determined with 50 μM of Clozapine. The assay volume was 25 μl. TopSeal-A were applied onto Flashplate microplates and they were incubated at room temperature for 240 minutes in darkness. The radioactivity were quantified by liquid scintillation spectrophotometry (Wallac 1450 Microbeta Trilux) with a count delay of 4 minutes prior to counting and a counting time of 30 seconds per well. Competition binding data were analyzed by using the LIGAND program (Munson and Rodbard, LIGAND: A versatile, computerized approach for characterization of ligand-binding systems. Anal. Biochem. 107: 220–239, 1980) and assays were performed in triplicate determinations for each point.

T1 sequence (P34969 whole entry): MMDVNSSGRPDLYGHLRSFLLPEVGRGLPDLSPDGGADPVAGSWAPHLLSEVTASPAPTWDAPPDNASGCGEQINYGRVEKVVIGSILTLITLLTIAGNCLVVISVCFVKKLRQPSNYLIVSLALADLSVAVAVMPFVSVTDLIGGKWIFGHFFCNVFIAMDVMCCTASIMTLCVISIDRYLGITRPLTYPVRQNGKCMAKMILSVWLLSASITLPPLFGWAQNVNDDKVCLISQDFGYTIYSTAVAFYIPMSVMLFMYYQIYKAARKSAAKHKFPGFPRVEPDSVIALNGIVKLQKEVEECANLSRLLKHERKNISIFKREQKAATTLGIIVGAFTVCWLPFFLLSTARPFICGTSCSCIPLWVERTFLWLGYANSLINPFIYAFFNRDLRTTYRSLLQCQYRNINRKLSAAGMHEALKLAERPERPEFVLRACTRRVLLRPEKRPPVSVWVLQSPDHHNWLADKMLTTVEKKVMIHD

Row | Structure (SMILES) | IC50
1 | COc1cc2c(cc1OC)CN(CCCCNS(=O)(=O)c1cc(Cl)c(F)cc1F)CC2 [Compound 116, 5-Chloro-N-[4-(6,7-dimethoxy-3,4-dihydro-1H-isoquinolin-2-yl)-butyl]-2,4-difluoro-benzenesulfonamide] | 0.0311 µM
2 | COc1cc2c(cc1OC)CN(CCCCNS(=O)(=O)c1cccc(C)c1)CC2 [Compound 210, N-[4-(6,7-Dimethoxy-3,4-dihydro-1H-isoquinolin-2-yl)-butyl]-3-methyl-benzenesulfonamidehydrochloride] | 0.0373 µM
3 | O=S(=O)(NCCCCN1CCc2ccccc2C1)c1cc(F)ccc1F [Compound 140, N-[4-(3,4-Dihydro-1H-isoquinolin-2-yl)-butyl]-2,5-difluoro-benzenesulfonamidehydrochloride] | 0.0608 µM
4 | O=S(=O)(NCCCCN1CCc2ccccc2C1)c1ccc2ccccc2c1 [Compound 2, Naphthalene-2-sulfonic acid [4-(3,4-dihydro-1H-isoquinolin-2-yl)-butyl]-amide hydrochloride] | 0.0592 µM
5 | COc1cc2c(cc1OC)CN(CCCCNS(=O)(=O)c1cc(F)c(F)cc1Cl)CC2 [Compound 151, 2-Chloro-N-[4-(6,7-dimethoxy-3,4-dihydro-1H-isoquinolin-2-yl)-butyl]-4,5-difluoro-benzenesulfonamidehydrochloride] | 0.039 µM
6 | COc1cc2c(cc1OC)CN(CCCCNS(=O)(=O)c1ccccc1Cl)CC2 [Compound 118, 2-Chloro-N-[4-(6,7-dimethoxy-3,4-dihydro-1H-isoquinolin-2-yl)-butyl]-benzenesulfonamidehydrochloride] | 0.0392 µM
7 | COc1cc2c(cc1OC)CN(CCCCNS(=O)(=O)c1ccccc1Br)CC2 [Compound 257, 2-Bromo-N-[4-(6,7-dimethoxy-3,4-dihydro-1H-isoquinolin-2-yl)-butyl]-benzenesulfonamidehydrochloride] | 0.0572 µM
8 | O=S(=O)(NCCCCN1CCc2ccccc2C1)c1ccccc1 [Compound 5, N-[4-(3,4-Dihydro-1H-isoquinolin-2-yl)-butyl]-benzenesulfonamidehydrochloride] | 0.0332 µM
9 | COc1ccc(OC)c(S(=O)(=O)NCCCCN2CCc3cc(OC)c(OC)cc3C2)c1 [Compound 235, N-[4-(6,7-Dimethoxy-3,4-dihydro-1H-isoquinolin-2-yl)-butyl]-2,5-dimethoxy-benzenesulfonamidehydrochloride] | 0.0684 µM
10 | COc1cc2c(cc1OC)CN(CCCCNS(=O)(=O)c1cc(C)c(Cl)cc1C)CC2 [Compound 220, 4-Chloro-N-[4-(6,7-dimethoxy-3,4-dihydro-1H-isoquinolin-2-yl)-butyl]-2,5-dimethyl-benzenesulfonamidehydrochloride] | 0.0674 µM
11 | O=S(=O)(NCCCCN1CCc2ccccc2C1)c1c(F)cc(F)cc1Br [Compound 160, 2-Bromo-N-[4-(3,4-dihydro-1H-isoquinolin-2-yl)-butyl]-4,6-difluoro-benzenesulfonamidehydrochloride] | 0.0744 µM
12 | O=S(=O)(NCCCCN1CCc2ccccc2C1)c1cc(F)c(F)cc1F [Compound 142, N-[4-(3,4-Dihydro-1H-isoquinolin-2-yl)-butyl]-2,4,5-trifluoro-benzenesulfonamidehydrochloride] | 0.0804 µM
